Experimental data taken from patent US7569530B1, “Antimicrobial compositions, products and methods employing same” (The Procter & Gamble Company, priority 2003, dated 2009).

What was measured:
COX-2 = target: T1, COX-2 (Homo sapiens, UniProt P35354); assay: In vitro cycloxygenase enzyme inhibition; assay type: biochemical; conditions: treatment sample at pH 3.0
T1 sequence (P35354 18-604): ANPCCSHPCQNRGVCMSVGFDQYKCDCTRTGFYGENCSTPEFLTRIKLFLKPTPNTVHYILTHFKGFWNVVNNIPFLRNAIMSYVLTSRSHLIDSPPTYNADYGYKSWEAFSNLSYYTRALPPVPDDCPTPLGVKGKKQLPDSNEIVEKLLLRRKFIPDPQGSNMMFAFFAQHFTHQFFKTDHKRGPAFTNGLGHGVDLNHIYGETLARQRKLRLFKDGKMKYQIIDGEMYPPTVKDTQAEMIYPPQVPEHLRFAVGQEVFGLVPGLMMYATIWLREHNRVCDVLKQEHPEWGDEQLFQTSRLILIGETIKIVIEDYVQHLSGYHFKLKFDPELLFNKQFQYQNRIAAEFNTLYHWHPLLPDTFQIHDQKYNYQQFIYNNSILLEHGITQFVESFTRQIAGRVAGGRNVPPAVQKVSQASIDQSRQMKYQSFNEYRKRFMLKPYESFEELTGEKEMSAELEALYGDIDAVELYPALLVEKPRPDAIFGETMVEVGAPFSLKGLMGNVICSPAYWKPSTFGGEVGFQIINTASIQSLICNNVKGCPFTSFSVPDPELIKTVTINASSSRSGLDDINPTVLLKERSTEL
Source text: (§1) In vitro studies of the present invention and its key components have been conducted to assess the efficacy of the claimed compositions in inhibiting the cycloxygenase (COX) 1 and 2 enzymes. Said enzymes are adapted to convert arachidonic acid in cell membranes to prostaglandin, a messenger agent that conveys a signal to the cells to increase and enhance their inflammatory response. […] The results of this in vitro study have been documented in the below-listed chart.

COX-1 = COX-1 (Homo sapiens, UniProt P23219); assay: In vitro cycloxygenase enzyme inhibition; assay type: biochemical; conditions: treatment sample at pH 3.0
Source text: as §1

Sequence of COX-1 (P23219 24-599): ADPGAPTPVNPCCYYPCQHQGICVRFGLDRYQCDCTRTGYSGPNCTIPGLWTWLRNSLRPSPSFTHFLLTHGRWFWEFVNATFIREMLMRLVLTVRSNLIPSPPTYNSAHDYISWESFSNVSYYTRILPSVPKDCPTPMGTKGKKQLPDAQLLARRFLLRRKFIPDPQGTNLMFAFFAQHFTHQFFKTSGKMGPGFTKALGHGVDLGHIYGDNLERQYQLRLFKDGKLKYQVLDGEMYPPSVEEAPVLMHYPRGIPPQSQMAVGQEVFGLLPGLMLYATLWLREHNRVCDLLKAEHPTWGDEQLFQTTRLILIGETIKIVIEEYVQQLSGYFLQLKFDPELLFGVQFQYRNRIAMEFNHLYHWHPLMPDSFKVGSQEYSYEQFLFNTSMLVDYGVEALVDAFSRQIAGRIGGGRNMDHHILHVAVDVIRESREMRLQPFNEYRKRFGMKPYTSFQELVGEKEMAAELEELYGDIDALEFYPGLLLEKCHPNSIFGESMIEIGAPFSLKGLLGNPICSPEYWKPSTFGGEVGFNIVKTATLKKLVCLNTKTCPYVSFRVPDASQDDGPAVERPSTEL

| % of Initial Enzyme Activity COX-2 (COX-2) | % of Initial Enzyme Activity COX-1 (COX-1) | Molecule |
| --- | --- | --- |
| 92% | 100% | O=C1CC[C@@H](C(=O)O)N1 [B, Pyroglutamic Acid] |
| 100% | 94% | O=C(O)CC(O)(CC(=O)O)C(=O)O [C, Citric Acid] |
| 95% | 55% | Octyl Glyceryl Sulfonate |
